Data taken from patent US12310975B2, “Modulators of BCL6 proteolysis and associated methods of use” (Arvinas Operations, Inc., priority 2019, dated 2025).
Like-named read-outs stand apart in the source and are kept apart here.

How the values were obtained:
BCL6 [1] = target: T1, BCL6 (Homo sapiens (Human), UniProt P41182); test: BCL6 TR-FRET assay (BCL6-Avitag-Biotin / BCoR-Cy5 peptide); format: binding
Method in brief: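 TR-FRET displacement assay: biotinylated His-SUMO-BCL6-Avitag (2 nM) pre-incubated 30 min at room temperature with compound (12-point 3-fold titration), then BCoR-Cy5 peptide (100 nM) and Eu-streptavidin (2 nM) added. Buffer: 50 mM HEPES pH 7.5, 125 mM NaCl, 0.01% Triton X, glutathione or DTT, 0.03% BSA. Read after 2 h.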

BCL6 [2] = target: T1, BCL6; test: Immunofluorescence high content imaging of BCL6 degradation in T47D cells; format: cell-based; conditions: for Dmax: T47D; for DC50: class symbols A-D, read-out: EC50 (nM)*
Method in brief: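 BCL6 loss was quantified by high-content imaging (10×, 4 fields/well) after PFA fixation and anti-BCL6/Alexa-488 staining with Hoechst nuclear and CellMask counterstains. Compounds were applied for 3 days to T47D breast cancer cells in RPMI-10% FBS, 11 points, 3-fold steps, top 0.1 or 1 μM.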

[3] = class symbols A-D, read-out: IC50 (nM)***

Row | Compound | IC50 (BCL6 [1]; read-out: IC50) [nM] | Dmax (BCL6 [2]) [%] | IC50 (BCL6 [1]; [3]) [nM] | Dmax (BCL6 [2]; maximum, class symbols A-C) [%] | DC50 (BCL6 [2]) [nM]
1 | CNC(=O)COc1cc2cc(Nc3nc(N4CCC(O[C@H]5C[C@H](N6CCN(c7cccc8c7C(=O)N(C7CCC(=O)NC7=O)C8=O)CC6)C5)CC4)ncc3Cl)ccc2n(C(C)C)c1=O (stereo partly shown) [compound 518, 2-({6-[(5-chloro-2-{4-[(1r,3r)-3-{4-[2-(2,6-dioxopiperidin-3-yl)-1,3-dioxo-2,3-dihydro-1H-isoindol-4-yl]piperazin-1-yl}cyclobutoxy]piperidin-1-yl}pyrimidin-4-yl)amino]-2-oxo-1-(propan-2-yl)-1,2-dihydroquinolin-3-yl}oxy)-N-methylacetamide] | 10 to 50 | ≥ 70 |  |  | 
2 | Cn1c(=O)cc(NC(C)(C)c2ncccn2)c2cc(Nc3nc(N4CCC(CN5CCN(c6ccc7c(c6)C(=O)N(C6CCC(=O)NC6=O)C7=O)CC5)CC4)ncc3Cl)ccc21 (stereo not shown) [compound 156, 5-(4-((1-(5-chloro-4-((1-methyl-2-oxo-4-((2-(pyrimidin-2-yl)propan-2-yl)amino)-1,2-dihydroquinolin-6-yl)amino)pyrimidin-2-yl)piperidin-4-yl)methyl)piperazin-1-yl)-2-(2,6-dioxopiperidin-3-yl)isoindoline-1,3-dione] |  |  | ≥ 100 | < 50 | > 100
3 | CNC(=O)COc1cc2cc(Nc3nc(N4CCC(OCCOCCOCCOCCCOc5ccc6c(c5)CN(C5CCC(=O)NC5=O)C6=O)CC4)ncc3Cl)ccc2n(C)c1=O (stereo not shown) [compound 168, 2-((6-((5-chloro-2-(4-(2-(2-(2-(3-((2-(2,6-dioxopiperidin-3-yl)-1-oxoisoindolin-5-yl)oxy)propoxy)ethoxy)ethoxy)ethoxy)piperidin-1-yl)pyrimidin-4-yl)amino)-1-methyl-2-oxo-1,2-dihydroquinolin-3-yl)oxy)-N-methylacetamide] |  |  | 10 to 50 | 50 to 70 | > 100

Next, values leading:

Row | IC50 (BCL6 [1]; read-out: IC50) [nM] | Dmax (BCL6 [2]) [%] | IC50 (BCL6 [1]; [3]) [nM] | Dmax (BCL6 [2]; maximum, class symbols A-C) [%] | DC50 (BCL6 [2]) [nM] | Compound
4 | < 10 | 50 to 70 |  |  |  | CNC(=O)COc1cc2cc(Nc3nc(N4CCC(CN5CC6(CCN(c7cccc8c7CN(C7CCC(=O)NC7=O)C8=O)CC6)C5)CC4)ncc3Cl)ccc2n(C(C)C)c1=O (stereo not shown) [compound 448, 2-{[6-({5-chloro-2-[4-({7-[2-(2,6-dioxopiperidin-3-yl)-1-oxo-2,3-dihydro-1H-isoindol-4-yl]-2,7-diazaspiro[3.5]nonan-2-yl}methyl)piperidin-1-yl]pyrimidin-4-yl}amino)-2-oxo-1-(propan-2-yl)-1,2-dihydroquinolin-3-yl]oxy}-N-methylacetamide]
5 |  |  | < 10 | 50 to 70 |  | CC(=O)COc1cc2cc(Nc3nc(N4CCC(CN5CCN(c6ccc7c(c6)CN(C6CCC(=O)NC6=O)C7=O)CC5)CC4)ncc3Cl)ccc2n(C)c1=O (stereo not shown) [compound 175, 3-(5-(4-((1-(5-chloro-4-((1-methyl-2-oxo-3-(2-oxopropoxy)-1,2-dihydroquinolin-6-yl)amino)pyrimidin-2-yl)piperidin-4-yl)methyl)piperazin-1-yl)-1-oxoisoindolin-2-yl)piperidine-2,6-dione]
6 | < 10 | 50 to 70 |  |  |  | CNC(=O)COc1cc2cc(Nc3nc(N4CCC(OC5CN(C6CCN(c7ccc8c(c7)C(=O)N(C7CCC(=O)NC7=O)C8=O)CC6)C5)CC4)ncc3Cl)ccc2n(C(C)C)c1=O (stereo not shown) [compound 526, 2-({6-[(5-chloro-2-{4-[(1-{1-[2-(2,6-dioxopiperidin-3-yl)-1,3-dioxo-2,3-dihydro-1H-isoindol-5-yl]piperidin-4-yl}azetidin-3-yl)oxy]piperidin-1-yl}pyrimidin-4-yl)amino]-2-oxo-1-(propan-2-yl)-1,2-dihydroquinolin-3-yl}oxy)-N-methylacetamide]
7 | < 10 | 50 to 70 |  |  |  | CNC(=O)COc1cc2cc(Nc3nc(N4CCN(CC5CCN(c6cc(OC)cc(C(=O)NC7CCC(=O)NC7=O)c6F)CC5)CC4)ncc3Cl)ccc2n(C(C)C)c1=O (stereo not shown) [compound 473, 3-[4-({4-[5-chloro-4-({3-[(methylcarbamoyl)methoxy]-2-oxo-1-(propan-2-yl)-1,2-dihydroquinolin-6-yl}amino)pyrimidin-2-yl]piperazin-1-yl}methyl)piperidin-1-yl]-N-(2,6-dioxopiperidin-3-yl)-2-fluoro-5-methoxybenzamide]
